# Source: US12146185B2, “Genetic markers for enhancing efficacy of antipsychotic treatment with iloperidone” (Vanda Pharmaceuticals Inc., priority 2018, dated 2024)
# Test system: schizophrenia patients
# Test: Genome-wide association study of iloperidone efficacy (PANSS-T) in a randomized, double-blind, placebo- and ziprasidone-controlled 28-day study
# Format: in vivo, human
# Conditions: for Genotype associated with lower treatment effect: PANSS-T
# Protocol: A genome-wide association study (GWAS) is performed to improve understanding of the pharmacogenomic basis of response to iloperidone treatment of schizophrenia patients. In the GWAS, genotypes of 205 patients are utilized to evaluate treatment with iloperidone. Linear regression is used to directly test the association between single nucleotide polymorphisms (SNPs) and PANSS-T (day 28), correcting for essential covariates including principal components.
# Patients 18-65 years of age with diagnoses of schizophrenia according to the Diagnostic and Statistical Manual of Mental Disorders, 4th Edition are eligible to participate in a randomized, double-blind, placebo- and ziprasidione-controlled, 28-day study of the efficacy and safety of iloperidone. Patients are randomly assigned to iloperidone 12 mg bid, ziprasidone 80 mg bid (active control), or placebo. The primary efficacy variable is change from baseline to the last scheduled observation in PANSS-T using the data from the short-term, double-blind phase. A secondary objective is to identify genetic markers predictive of response to iloperidone. Blood samples are collected, and DNA is extracted from patients who consented to the optional GWAS.
# Three analyses of the PANSS-T are conducted: 1) A two-step approach where samples are randomly split into 2 groups of iloperidone-treated patients used to discover SNPs associated with change in PANSS-T (Discovery phase) and a second group to confirm the 100 most significant SNPs (Confirmatory phase). 2) A one-step approach using the Last Observation Carried Forward (LOCF) PANSS-T data of all iloperidone-treated patients. For each SNP, the most parsimonious genetic model (e.g., homozygous for one allele v. all other genotypes [i.e., AA v. AB and BB], heterozygous v. homozygous [i.e., AB v. AA and BB]) was established with respect to iloperidone efficacy using a one-way analysis of variance (ANOVA). 3) A Mixed-effects Model Repeated Measures (MMRM) analysis was subsequently conducted using the best genetic model of each SNP in the MMRM model. MMRM analyses were also conducted with the PANSS subscales PANSS-P, PANSS-N, and PANSS-GP.
# The SNPs with a statistically significant association in all 3 analyses of PANSS-T, as well as the best of each analysis are considered significant findings and are listed below in Table 3.
# A logistic regression is conducted based on binary cutoffs at PANSS-T≥30 and on the top ends of the distribution logistic model, splitting the data set into two groups: robust responders (i.e., responders having PANSS_T change≥30) and weak responders (i.e., responders having PANSS-T change<20). A significant GRM8 signal is observed in allelic tests conducted, that is, linear association is observed with PANSS-T day 28, logistic model with tot change>=30 vs weak (<20) and logistic association with high and low PANSS-T.
smiles,measurement,setting,value
"COc1cc(C(C)=O)ccc1OCCCN1CCC(c2noc3cc(F)ccc23)CC1 [iloperidone, 1-[4-[3-[4-(6-fluoro-1,2-benzisoxazol-3-yl)-1-piperidinyl]propoxy]-3-methoxyphenyl]ethanone]",Genotype associated with lower treatment effect,GRIP1 rs11176436,nonTT
same,Genotype associated with lower treatment effect,GRM8 rs2299503,nonAA
same,Genotype associated with lower treatment effect,GRM8 rs11763603,nonCC
same,Genotype associated with lower treatment effect,GRM8 rs13222700,nonTT
same,Genotype associated with lower treatment effect,NRXN3 rs17109739,nonCC
same,Genotype associated with lower treatment effect,NTRK2 rs7049108,nonGG
same,Genotype associated with lower treatment effect,SHANK2 rs579298,nonTT
same,iloperidone treatment effect as measured by PANSS-T by rs13222700 genotype,"TT (homozygous minor allele) vs GT or GG, iloperidone 12 mg bid, PANSS-T day 28, FIG. 1",significantly higher treatment effect
same,iloperidone treatment effect as measured by PANSS-T change by rs13222700 genotype,"TT vs GT or GG, iloperidone 12 mg bid, FIG. 3",significantly larger change in PANSS-T score
same,P of association of GRM8 variant rs13222700 with iloperidone efficacy,"top locus of association analyses, chromosome 7",< 1×10^−5
